Assay results reported in the supplement of paper PMC10307832.

Columns and labels:
Test in all cases: relative viability (nuclei count vs DMSO), 5 days (fraction); higher = more cells survive
Tosedostat + OSI-027 = compound: CC(C)C[C@@H](C(=O)N[C@H](C(=O)OC1CCCC1)c1ccccc1)[C@H](O)C(=O)NO [Tosedostat] + COc1cccc2cc(-c3nc([C@H]4CC[C@H](C(=O)O)CC4)n4ncnc(N)c34)[nH]c12 [OSI-027] (partner 0.5 µM)
In short: (§1)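 Relative viability was taken as the ratio of nuclei in treated wells to nuclei in vehicle wells. Lung cancer cell lines in 1536-well plates received compounds by pin tool one day after seeding, either one drug alone or a fixed anchor-drug dose plus five library-drug doses (not always all listed) in √10 steps. Nuclei were counted on 4× images after 5 days of treatment, and values are medians of duplicate plates.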

Tosedostat + Crizotinib = compound: CC(C)C[C@@H](C(=O)N[C@H](C(=O)OC1CCCC1)c1ccccc1)[C@H](O)C(=O)NO [Tosedostat] + C[C@@H](Oc1cc(-c2cnn(C3CCNCC3)c2)cnc1N)c1c(Cl)ccc(F)c1Cl [Crizotinib] (partner 1 µM)
In short: as §1

[1] = compound: CC1=NN=C(O1)C2=NN=C(C=C2)N3CCC(CC3)OC4=C(C=CC(=C4)F)Cl + N=C(N)NC(=N)NCCc1ccccc1 [Phenformin] (partner 250 µM)
In short: as §1

[2] = compound: CC1=NN=C(O1)C2=NN=C(C=C2)N3CCC(CC3)OC4=C(C=CC(=C4)F)Cl + Nc1nc2[nH]cc(CCc3ccc(C(=O)N[C@@H](CCC(=O)O)C(=O)O)cc3)c2c(=O)[nH]1 [Pemetrexed] (partner 0.2 µM)
In short: as §1

UMC-11
relative viability (Tosedostat + OSI-027; first compound 0.02 µM): 0.473 | relative viability (Tosedostat + OSI-027; first compound 0.06325 µM): 0.464 | relative viability (Tosedostat + OSI-027; first compound 0.2 µM): 0.397 | relative viability (Tosedostat + OSI-027; first compound 0.6325 µM): 0.449 | relative viability (Tosedostat + OSI-027; first compound 2 µM): 0.473 | relative viability (Tosedostat + Crizotinib; first compound 0.02 µM): 0.688 | relative viability (Tosedostat + Crizotinib; first compound 0.06325 µM): 0.648 | relative viability (Tosedostat + Crizotinib; first compound 0.2 µM): 0.6 | relative viability (Tosedostat + Crizotinib; first compound 0.6325 µM): 0.559 | relative viability (Tosedostat + Crizotinib; first compound 2 µM): 0.459 | relative viability ([1]; first compound 0.253 µM): 0.288 | relative viability ([1]; first compound 0.8 µM): 0.291 | relative viability ([1]; first compound 2.53 µM): 0.263 | relative viability ([1]; first compound 8 µM): 0.263 | relative viability ([2]; first compound 0.253 µM): 0.504 | relative viability ([2]; first compound 0.8 µM): 0.535 | relative viability ([2]; first compound 2.53 µM): 0.518 | relative viability ([2]; first compound 8 µM): 0.37
